Structures can show the parent of a compound that is named as a salt.
Assay: Solubility of chemotherapeutic agents in solubilizing excipients and excipient blends
Type: physicochemical
Conditions: all organic blends: PEG400/Tween; Cremophor or Solutol/PEG400; Cremophor or Solutol/DMA or ethanol/PEG400
Description: Eleven compounds and seven solubilizing excipients were obtained from commercial sources (see Table 1). […] The excipients listed comprise all of the organic solubilizers currently approved by the FDA for intravenous use in human patients.
Concentration targets were calculated based on providing the same amount of drug used clinically over the time period typically allotted for each compound (see Table 2 for target concentrations). Each solubilizing mixture was started at the target concentration, and if ineffective, diluted 2-fold successively until solubilization was achieved (sometimes with the help of gentle heating, mixing, or sonication), or until the solution was tested at 1:16 the target concentration, in which case further testing was halted (this concentration is approximately what would be required to hit a target dose with a daily cartridge exchange in a delivery device).
Three primary formulation combinations were tested in this example: • Solvent and co-solvent systems (PEG400 and Tween® 20 or Tween® 80) • Surfactant and co-solvent systems (Cremophor® or Solutol® and PEG400) • Surfactant and solvent/co-solvent systems (Cremophor® or Solutol® and DMA or ethanol and PEG400) For the first two combinations, mixtures were made upfront and solubility of each compound tested within. For the third, the compound was pre-dissolved in either DMA or ethanol and the remaining components then added as a mixture.

| Compound | solubility in organic blends tested |
| --- | --- |
| Nc1ccn([C@@H]2O[C@H](CO)[C@@H](O)C2(F)F)c(=O)n1 [gemcitabine hydrochloride] | insoluble in all of the organic blends tested |
| CCc1c2c(nc3ccc(OC(=O)N4CCC(N5CCCCC5)CC4)cc13)-c1cc3c(c(=O)n1C2)COC(=O)[C@]3(O)CC [irinotecan] | insoluble in all of the organic blends tested |
| N.N.O=C([O-])C1(C(=O)[O-])CCC1.[Pt+2] [carboplatin] | insoluble in all of the organic blends tested |
| O=c1[nH]cc(F)c(=O)[nH]1 [5-FU, fluorouracil] | insoluble in all of the organic blends tested |

Same assay, conditions: compound pre-dissolved in dimethylacetamide (DMA)

| Compound | solubility in DMA |
| --- | --- |
| CC[C@]1(O)C[C@@H]2CN(CCc3c([nH]c4ccccc34)[C@@](C(=O)OC)(c3cc4c(cc3OC)N(C)[C@H]3[C@@](O)(C(=O)OC)[C@H](OC(C)=O)[C@]5(CC)C=CCN6CC[C@]43[C@@H]65)C2)C1 [vinblastine] | sufficient to solubilize |
| CN(Cc1cnc2nc(N)nc(N)c2n1)c1ccc(C(=O)N[C@@H](CCC(=O)O)C(=O)O)cc1 [methotrexate] | sufficient to solubilize |
| CC(=O)O[C@@]12CO[C@@H]1C[C@H](O)[C@@]1(C)C(=O)[C@H](O)C3=C(C)[C@@H](OC(=O)[C@H](O)[C@@H](NC(=O)OC(C)(C)C)c4ccccc4)C[C@@](O)([C@@H](OC(=O)c4ccccc4)[C@H]21)C3(C)C [docetaxel] | sufficient to solubilize |
| COc1cc([C@@H]2c3cc4c(cc3[C@@H](O[C@@H]3O[C@@H]5CO[C@@H](C)O[C@H]5[C@H](O)[C@H]3O)[C@H]3COC(=O)[C@H]23)OCO4)cc(OC)c1O [etoposide] | sufficient to solubilize |
| CC(=O)O[C@H]1C(=O)[C@@]2(C)[C@H]([C@H](OC(=O)c3ccccc3)[C@]3(O)C[C@H](OC(=O)[C@H](O)[C@@H](NC(=O)c4ccccc4)c4ccccc4)C(C)=C1C3(C)C)[C@]1(OC(C)=O)CO[C@@H]1C[C@@H]2O [paclitaxel] | sufficient to solubilize |

Same assay, conditions: free base versus hydrochloride salt

| Compound | solubility of free base instead of the salt |
| --- | --- |
| Nc1ccn([C@@H]2O[C@H](CO)[C@@H](O)C2(F)F)c(=O)n1 [gemcitabine] | increased solubility |
